Data set [1] has as its target T1, Protein deacetylase HDAC6 (Homo sapiens) (UniProt Q9UBN7).
T1 sequence (whole entry): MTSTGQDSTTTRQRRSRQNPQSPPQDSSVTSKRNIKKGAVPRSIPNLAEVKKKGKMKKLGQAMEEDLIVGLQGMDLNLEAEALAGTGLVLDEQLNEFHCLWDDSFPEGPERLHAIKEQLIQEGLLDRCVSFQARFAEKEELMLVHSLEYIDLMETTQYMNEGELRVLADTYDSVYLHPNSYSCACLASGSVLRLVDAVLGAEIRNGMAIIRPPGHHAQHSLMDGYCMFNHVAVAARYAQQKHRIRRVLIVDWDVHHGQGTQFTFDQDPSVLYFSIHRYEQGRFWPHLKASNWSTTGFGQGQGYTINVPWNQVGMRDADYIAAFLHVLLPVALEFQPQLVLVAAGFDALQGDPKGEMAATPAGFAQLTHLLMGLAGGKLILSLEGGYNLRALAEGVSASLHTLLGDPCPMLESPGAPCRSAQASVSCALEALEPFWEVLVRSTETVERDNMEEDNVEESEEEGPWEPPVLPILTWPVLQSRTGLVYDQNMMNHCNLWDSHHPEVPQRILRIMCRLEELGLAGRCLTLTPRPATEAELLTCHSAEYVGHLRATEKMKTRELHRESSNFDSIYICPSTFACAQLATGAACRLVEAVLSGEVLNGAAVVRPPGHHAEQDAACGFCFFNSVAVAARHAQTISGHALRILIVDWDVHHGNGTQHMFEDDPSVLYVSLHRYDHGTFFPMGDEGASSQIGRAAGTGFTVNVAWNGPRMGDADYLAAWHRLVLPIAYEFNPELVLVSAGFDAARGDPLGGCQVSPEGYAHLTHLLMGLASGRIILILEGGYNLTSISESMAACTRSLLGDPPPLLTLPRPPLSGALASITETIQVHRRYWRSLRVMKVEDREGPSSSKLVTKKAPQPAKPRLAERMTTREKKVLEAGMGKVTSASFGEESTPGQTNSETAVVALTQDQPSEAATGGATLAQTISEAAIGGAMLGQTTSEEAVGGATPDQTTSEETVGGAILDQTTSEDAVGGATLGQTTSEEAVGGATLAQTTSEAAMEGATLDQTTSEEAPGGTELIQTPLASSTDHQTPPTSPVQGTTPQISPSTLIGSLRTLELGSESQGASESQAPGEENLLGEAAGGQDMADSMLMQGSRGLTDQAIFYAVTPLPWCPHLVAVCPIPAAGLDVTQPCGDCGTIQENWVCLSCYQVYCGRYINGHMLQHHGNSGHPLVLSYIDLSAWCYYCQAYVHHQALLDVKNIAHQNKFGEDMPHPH
The experiment in a line: Inhibition of HDAC6 in human HH cells assessed as induction of acetylated H4 accumulation upto 10 uM by Western blot analysis. Type of data set: cell-based. A general note: A western blot detects proteins with antibodies after separation by electrophoresis.

The nature of data set [2]: C0 in mouse at 10 mg/kg, iv. The note with it: in vivo. Type of data set: ADME, organism-based.
Data set [3] can be described thus: AUC (0 to infinity) in mouse at 50 mg/kg, po. Type of data set: ADME, organism-based. The conditions noted are these: in vivo.
A short description of data set [4]: C0 in dog at 0.5 mg/kg, iv. The conditions noted are these: in vivo. Type of data set: ADME, organism-based, Canis lupus familiaris.
Data set [5] in a line: Clearance in dog at 0.5 mg/kg, iv. The note with it: in vivo. Type of data set: ADME, organism-based, Canis lupus familiaris.
The nature of data set [6]: Half life in monkey at 10 mg/kg, po. Type of data set: ADME, organism-based, Macaca mulatta. The note with it: rhesus monkey, in vivo.
The nature of data set [7]: Cmax in monkey at 10 mg/kg, po. Type of data set: ADME, organism-based, Macaca mulatta. The note with it: rhesus monkey, in vivo.
The subject of data set [8] is Mus musculus. The data set is described as follows: Antiarthritic activity against collagen-induced arthritis DBA1J mouse model assessed as improvement in arthritis symptoms at 30 mg/kg, sc measured after 21 days. Type of data set: functional. The note with it: time 21 day.

The source made the active and inactive calls. No cut-off for these calls is given here.

Consider `CC1(C)CC(=O)c2c(C(F)(F)F)nn(Cc3ccc(C(=O)NO)cc3)c2C1`, for which the inhibition entry in data set [1] was “inactive”. For the same compound, the C0 was determined as 4290 ng/mL in data set [2] and 2080 ng/mL in data set [4]. Further, the AUC(0-inf) in data set [3] was determined as 1150 ng·h/mL. For the same compound, in data set [5], the clearance is 18.8 mL/min/kg. In data set [6], this compound showed a half-life of 57 min. This compound showed a Cmax in data set [7] of 137 ng/mL. For the same compound, the Activity in data set [8] was determined as 65%.

One may read the AUC(0-inf) as total exposure, with the tail of the curve extrapolated. As usually defined, the clearance is the volume of plasma or blood freed of the substance per unit of time. For orientation: half-life means the time in which the quantity being followed falls by half. By Cmax is commonly meant the highest concentration seen after dosing.

(Values after ChEMBL document CHEMBL5523684, “Development of a tetrahydroindazolone-based HDAC6 inhibitor with in-vivo anti-arthritic activity” (Bioorg Med Chem, 2024).)
